What was measured:
Experiment in all cases: relative viability (nuclei count vs DMSO), 5 days (fraction); higher = more cells survive
MLN4924 + Navitoclax = compound: NS(=O)(=O)OC[C@@H]1C[C@@H](n2ccc3c(N[C@H]4CCc5ccccc54)ncnc32)C[C@@H]1O [MLN4924] + CC1(C)CCC(c2ccc(Cl)cc2)=C(CN2CCN(c3ccc(C(=O)NS(=O)(=O)c4ccc(N[C@H](CCN5CCOCC5)CSc5ccccc5)c(S(=O)(=O)C(F)(F)F)c4)cc3)CC2)C1 [Navitoclax] (partner 0.5 µM)
Method in brief: (§1)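 One day after seeding in 1536-well plates, lung cancer cell lines were dosed by pin tool. Dosing was either single-drug or a fixed anchor-drug dose plus five library-drug doses (not always all listed) in √10 steps. After 5 days, nuclei were stained in one fix-and-stain step and counted on 4× images, and relative viability is the nuclei count of treated wells over that of vehicle wells, given as the median of duplicate plates.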

GSK126 + Lapatinib = compound: CC[C@H](C)N1C=C(C2=C(C=C(C=C21)C3=CN=C(C=C3)N4CCNCC4)C(=O)NCC5=C(C=C(NC5=O)C)C)C [GSK126] + CS(=O)(=O)CCNCc1ccc(-c2ccc3ncnc(Nc4ccc(OCc5cccc(F)c5)c(Cl)c4)c3c2)o1 [Lapatinib] (partner 2 µM)
Method in brief: as §1

Carboplatin + Pictilisib = compound: C1CC(C1)(C(=O)O)C(=O)O.[NH2-].[NH2-].[Pt+2] [Carboplatin] + CS(=O)(=O)N1CCN(Cc2cc3nc(-c4cccc5[nH]ncc45)nc(N4CCOCC4)c3s2)CC1 [Pictilisib] (partner 1 µM)
Method in brief: as §1

MLN4924 + Linsitinib = compound: NS(=O)(=O)OC[C@@H]1C[C@@H](n2ccc3c(N[C@H]4CCc5ccccc54)ncnc32)C[C@@H]1O [MLN4924] + C[C@]1(O)C[C@@H](c2nc(-c3ccc4ccc(-c5ccccc5)nc4c3)c3c(N)nccn32)C1 [Linsitinib] (partner 1 µM)
Method in brief: as §1

Cell Line | relative viability (MLN4924 + Navitoclax; first compound 0.04 µM) | relative viability (MLN4924 + Navitoclax; first compound 0.1265 µM) | relative viability (MLN4924 + Navitoclax; first compound 0.4 µM) | relative viability (MLN4924 + Navitoclax; first compound 1.265 µM) | relative viability (MLN4924 + Navitoclax; first compound 4 µM) | relative viability (GSK126 + Lapatinib; first compound 0.08 µM) | relative viability (GSK126 + Lapatinib; first compound 0.253 µM) | relative viability (GSK126 + Lapatinib; first compound 0.8 µM) | relative viability (GSK126 + Lapatinib; first compound 2.53 µM) | relative viability (GSK126 + Lapatinib; first compound 8 µM) | relative viability (Carboplatin + Pictilisib; first compound 0.08 µM) | relative viability (Carboplatin + Pictilisib; first compound 0.253 µM) | relative viability (Carboplatin + Pictilisib; first compound 0.8 µM) | relative viability (Carboplatin + Pictilisib; first compound 2.53 µM) | relative viability (Carboplatin + Pictilisib; first compound 8 µM) | relative viability (MLN4924 + Linsitinib; first compound 0.04 µM) | relative viability (MLN4924 + Linsitinib; first compound 0.1265 µM) | relative viability (MLN4924 + Linsitinib; first compound 0.4 µM) | relative viability (MLN4924 + Linsitinib; first compound 1.265 µM) | relative viability (MLN4924 + Linsitinib; first compound 4 µM)
COR-L 105 | 0.725 | 0.511 | 0.326 | 0.231 | 0.281 | 0.35 | 0.371 | 0.39 | 0.372 | 0.339 | 0.403 | 0.391 | 0.422 | 0.427 | 0.34 | 0.8 | 0.615 | 0.424 | 0.283 | 0.231
NCI-H727 | 0.303 | 0.255 | 0.269 | 0.231 | 0.19 | 0.746 | 0.81 | 0.984 | 0.884 | 1.06 | 0.348 | 0.512 | 0.314 | 0.29 | 0.352 | 0.402 | 0.169 | 0.234 | 0.21 | 0.24
EKVX | 0.861 | 0.816 | 0.352 | 0.173 | 0.148 | 0.226 | 0.22 | 0.211 | 0.203 | 0.221 | 0.452 | 0.422 | 0.413 | 0.381 | 0.387 | 0.949 | 0.653 | 0.471 | 0.169 | 0.127
NCI-H1437 | 1.03 | 0.906 | 0.571 | 0.347 | 0.143 | 0.95 | 0.729 | 0.776 | 0.748 | 0.852 | 0.433 | 0.401 | 0.414 | 0.381 | 0.413 | 0.959 | 0.828 | 0.466 | 0.221 | 0.103
PC-3 [JPC-3] | 0.785 | 0.788 | 0.66 | 0.321 | 0.419 | 0.43 | 0.489 | 0.527 | 0.477 | 0.462 | 0.912 | 0.684 | 0.761 | 0.701 | 0.706 | 0.975 | 0.923 | 0.679 | 0.383 | 0.386
LK-2 | 0.86 | 0.639 | 0.411 | 0.195 | 0.225 | 0.947 | 0.952 | 0.876 | 0.916 | 0.673 | 0.707 | 0.643 | 0.462 | 0.401 | 0.613 | 0.497 | 0.46 | 0.289 | 0.198 | 0.203
NCI-H1651 | 1.1 | 1.08 | 0.492 | 0.267 | 0.142 | 0.896 | 0.834 | 0.805 | 0.843 | 0.894 | 0.681 | 0.498 | 0.644 | 0.452 | 0.411 | 1.13 | 0.973 | 0.431 | 0.334 | 0.135
LC-2-ad | 0.382 | 0.276 | 0.184 | 0.13 | 0.105 | 1.05 | 1.03 | 0.9 | 0.894 | 1.05 | 0.669 | 0.477 | 0.436 | 0.447 | 0.399 | 0.854 | 0.533 | 0.281 | 0.162 | 0.13
NCI-H1734 | 0.943 | 0.814 | 0.331 | 0.103 | 0.0958 | 1.07 | 1 | 1.03 | 1.18 | 1.15 | 0.51 | 0.47 | 0.487 | 0.451 | 0.424 | 1.01 | 1.09 | 0.519 | 0.178 | 0.155
NCI-H460 | 1.01 | 1.04 | 0.431 | 0.0395 | 0.024 | 0.971 | 1.03 | 0.879 | 1.14 | 1.1 | 0.379 | 0.356 | 0.352 | 0.321 | 0.213 | 0.838 | 0.733 | 0.113 | 0.0176 | 0.0132
NCI-H838 | 0.831 | 0.307 | 0.211 | 0.16 | 0.196 | 1.12 | 0.938 | 0.882 | 0.865 | 0.906 | 0.476 | 0.391 | 0.469 | 0.454 | 0.485 | 0.675 | 0.283 | 0.208 | 0.161 | 0.149
NCI-H2347 | 0.676 | 0.677 | 0.44 | 0.305 | 0.369 | 1.04 | 1.04 | 0.917 | 0.994 | 0.94 | 0.65 | 0.516 | 0.623 | 0.708 | 0.74 | 0.908 | 0.731 | 0.57 | 0.424 | 0.41
NCI-H1395 | 0.981 | 1.19 | 0.651 | 0.407 | 0.375 | 1.04 | 0.973 | 1.3 | 1.14 | 1.03 | 0.722 | 0.548 | 0.854 | 0.548 | 0.513 | 0.991 | 0.771 | 0.605 | 0.384 | 0.377
NCI-H647 | 0.976 | 0.424 | 0.159 | 0.0575 | 0.0744 | 1.22 | 1.01 | 0.927 | 1.11 | 0.865 | 0.572 | 0.477 | 0.368 | 0.482 | 0.429 | 0.709 | 0.499 | 0.137 | 0.0815 | 0.0619
NCI-H520 | 0.629 | 0.583 | 0.298 | 0.227 | 0.223 | 1.09 | 0.713 | 0.722 | 0.898 | 0.922 | 0.357 | 0.227 | 0.27 | 0.297 | 0.258 | 0.587 | 0.413 | 0.312 | 0.239 | 0.185
